Results as given in patent US7335814B2, “Transgenic cells expressing glucosyltransferase nucleic acids” (The University of York, priority 2000, dated 2008).

Key:
Format in all cases: biochemical
[1] = target: T1, recombinant GTase A119 (Arabidopsis thaliana, UniProt Q9LVR1); assay: Kinetic studies (Michaelis-Menten) on recombinant GTase producing O-glucosides; conditions: O-glucoside formation
T1 construct: made in house; host or cells: E. coli
T1 sequence (Q9LVR1 1-481): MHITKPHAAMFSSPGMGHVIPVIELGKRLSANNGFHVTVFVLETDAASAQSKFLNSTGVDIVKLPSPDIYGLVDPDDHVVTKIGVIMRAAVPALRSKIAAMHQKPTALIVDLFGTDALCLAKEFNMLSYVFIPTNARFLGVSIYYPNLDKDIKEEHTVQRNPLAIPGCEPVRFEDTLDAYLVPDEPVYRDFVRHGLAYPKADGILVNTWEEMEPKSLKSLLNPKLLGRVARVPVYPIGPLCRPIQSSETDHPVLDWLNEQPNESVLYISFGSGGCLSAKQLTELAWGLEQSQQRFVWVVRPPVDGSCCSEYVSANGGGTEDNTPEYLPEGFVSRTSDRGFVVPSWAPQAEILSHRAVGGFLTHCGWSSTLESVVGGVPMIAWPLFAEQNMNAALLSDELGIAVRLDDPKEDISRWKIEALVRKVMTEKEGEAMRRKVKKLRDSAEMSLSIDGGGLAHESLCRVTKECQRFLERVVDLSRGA

[2] = target: T2, recombinant GTase A42 (Arabidopsis thaliana, UniProt O23401); assay: Kinetic studies (Michaelis-Menten) on recombinant GTase producing glucose esters; conditions: glucose ester formation
T2 construct: made in house; host or cells: E. coli
T2 sequence (O23401 1-479): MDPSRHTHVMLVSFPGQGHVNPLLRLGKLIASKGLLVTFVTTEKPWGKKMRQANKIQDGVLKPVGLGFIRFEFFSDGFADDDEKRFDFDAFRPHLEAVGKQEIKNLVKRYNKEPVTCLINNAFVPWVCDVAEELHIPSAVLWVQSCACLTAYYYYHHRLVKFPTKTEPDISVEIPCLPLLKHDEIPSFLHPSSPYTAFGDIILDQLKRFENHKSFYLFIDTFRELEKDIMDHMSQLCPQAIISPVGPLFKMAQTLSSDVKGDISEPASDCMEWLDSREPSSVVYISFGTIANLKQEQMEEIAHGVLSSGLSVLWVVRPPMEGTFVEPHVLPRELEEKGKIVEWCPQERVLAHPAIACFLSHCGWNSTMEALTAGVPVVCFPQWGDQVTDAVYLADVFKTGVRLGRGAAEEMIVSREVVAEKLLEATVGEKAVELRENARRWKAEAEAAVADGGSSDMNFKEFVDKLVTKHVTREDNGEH

[3] = target: T3, recombinant GTase A962 (Arabidopsis thaliana, UniProt O82382); assay: Specific activity of recombinant GTase producing O-glucosides against lignin precursors (HPLC); conditions: 30° C.; ND = not detected
T3 construct: made in house; host or cells: E. coli
T3 sequence (O82382 1-474): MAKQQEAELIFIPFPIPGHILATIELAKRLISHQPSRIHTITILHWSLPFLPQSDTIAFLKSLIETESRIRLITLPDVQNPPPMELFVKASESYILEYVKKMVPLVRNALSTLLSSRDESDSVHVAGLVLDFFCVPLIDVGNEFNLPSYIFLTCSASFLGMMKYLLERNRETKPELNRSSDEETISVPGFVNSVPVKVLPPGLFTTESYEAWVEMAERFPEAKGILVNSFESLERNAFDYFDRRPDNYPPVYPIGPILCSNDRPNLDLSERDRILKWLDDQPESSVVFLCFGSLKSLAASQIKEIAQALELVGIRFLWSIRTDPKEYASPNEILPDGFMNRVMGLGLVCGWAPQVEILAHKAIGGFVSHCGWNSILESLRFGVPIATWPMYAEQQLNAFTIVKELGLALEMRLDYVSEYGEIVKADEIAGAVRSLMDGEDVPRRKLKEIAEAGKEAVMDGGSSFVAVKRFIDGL

SMILES	Vmax (A119) [1]	Vmax (A42) [2]	Specific activity of A962 (substrate converted to 4-O-glucoside) [3]
COc1cc(/C=C/C(=O)O)ccc1O [Ferulic acid, ferulic acid]	18.87 nkat/mg	18.35 nkat/mg	–
O=C(O)/C=C/c1ccc(O)cc1 [p-coumaric acid]	–	–	0.01 nkat/mg
